{
  "source": "patent US20090148535A1",
  "about": "“METHOD FOR TREATING CANCER USING INTERFERENCE RNA” (MINERVA BIOTECHNOLOGIES CORPORATION, priority 2007, published 2009)",
  "type_in_all_cases": "cell-based",
  "key": {"BT474 cells": {"test_system": "BT474 cells", "test": "Cell death of BT474 cells with chemotherapeutic agents (Trypan Blue exclusion)", "conditions": "10 nM Taxol, two days post-treatment", "protocol": "(§1) BT474, BTRes1 and BTRes2 cells were plated at 10,000 cells/well in 96 well plates, 4 wells/condition. The following day, Cyclophosphamide, Taxol, or Doxorubicin were added in varying concentrations, alone, or in the presence of 10 ug/ml Anti-MUC1* Fab or 10 ug/ml Control Fab. Cells were left untreated, or treated with either Fab alone as controls. Two days later, cells were resuspended in 50 ul trypsin, and counted in the presence of trypan blue. Percent cell death was calculated as percent trypan blue uptake."}, "BTRes1 cells [1]": {"test_system": "BTRes1 cells", "test": "Cell death of BTRes1 cells with chemotherapeutic agents with or without Anti-MUC1* Fab (Trypan Blue exclusion)", "conditions": "for resistance of BTRes1 and restored killing effect with Anti-MUC1* Fab: 10 ug/ml Anti-MUC1* Fab", "protocol": "as §1"}, "MUC1*": {"test_system": "MUC1*", "test": "Western blot of MUC1* after siRNA transfection", "conditions": "Western Blot after transient siRNA transfection", "protocol": "(§2) BT474 cells were transfected in triplicate with control siRNA (Santa Cruz Biotechnologies; sc-37007), and BTRes1 cells were transfected in triplicate with control or MUC1-specific siRNA (Santa Cruz Biotechnologies sc-35985). One microliter of 10 uM siRNA was added to 100 ul of OptiMEM medium (Invitrogen 22600134). Six microliters of HiPerfect reagent (Qiagen 301704) were then added to each tube. After vortexing, tubes were incubated at room temperature for 20 minutes. Meanwhile, cells were trypsinized, pelleted and resuspended in fresh RPMI without HERCEPTIN. 5×10^5 cells in 2.3 ml RPMI were combined with the OptiMEM with siRNA/HiPerfect complexes and added to a well of a 6 well plate. Two days later, cells were re-transfected by the same method, and plated in 96 well plates, at 10,000 cells/well, five wells/condition. Leftover cells were plated in six well plates. […] The following day, cells plated in 6 well plates were harvested and pelleted for Western analysis to evaluate siRNA efficacy. Three days later, cells were counted, and Percent Normalized Growth was calculated."}, "BTRes1 cells [2]": {"test_system": "BTRes1 cells", "test": "Growth of siRNA-transfected BTRes1 cells in the presence of HERCEPTIN", "conditions": "HERCEPTIN 0-1 ug/ml, cell counts three days post-treatment", "protocol": "Percent Normalized Growth was then calculated: Percent Normalized Growth=[(Day 3 cell counts with Antibody Added )−(Zero-day cell counts)]/[(Day 3 Cell counts without antibody added)−(Zero-day cell counts)]×100%\nas §2"}},
  "data": [
    {"molecule": "CC(=O)O[C@H]1C(=O)[C@@]2(C)[C@H]([C@H](OC(=O)c3ccccc3)[C@]3(O)C[C@H](OC(=O)[C@H](O)[C@@H](NC(=O)c4ccccc4)c4ccccc4)C(C)=C1C3(C)C)[C@]1(OC(C)=O)CO[C@@H]1C[C@@H]2O", "note": "[Taxol]", "values": [
      {"measurement": "cell killing", "setting": "BT474 cells", "result": "effectively killed"},
      {"measurement": "cell killing", "setting": "BTRes1 cells [1]; BTRes1, 10 nM Taxol alone, two days, compared to untreated cells", "result": "essentially unaffected"},
      {"measurement": "killing effect with Anti-MUC1* Fab", "setting": "BTRes1 cells [1]; BTRes1, 10 nM Taxol and 10 ug/ml Anti-MUC1* Fab", "result": "restored"}
    ]},
    {"molecule": "COc1cccc2c1C(=O)c1c(O)c3c(c(O)c1C2=O)C[C@@](O)(C(=O)CO)C[C@@H]3O[C@H]1C[C@H](N)[C@H](O)[C@H](C)O1", "note": "[Doxorubicin]", "values": [
      {"measurement": "resistance of BTRes1 and restored killing effect with Anti-MUC1* Fab", "setting": "BTRes1 cells [1]; 1 uM drug", "result": "also observed"}
    ]},
    {"molecule": "MUC1 siRNA: MUC1-specific siRNA (Santa Cruz Biotechnologies sc-35985) (GCAGCCTCTCGATATAACCATCTCGAGGGGTTATATCGAGAGGCTGC; expressed or natural sequence)", "values": [
      {"measurement": "MUC1* level", "setting": "MUC1*", "result": "Down regulation"},
      {"measurement": "growth in the presence of HERCEPTIN of cells transfected with the siRNA", "setting": "BTRes1 cells [2]", "result": "reduced"}
    ]},
    {"molecule": "O=P1(N(CCCl)CCCl)NCCCO1", "note": "(stereo not shown) [Cyclophospharnide, Cyclophosphamide]", "values": [
      {"measurement": "resistance of BTRes1 and restored killing effect with Anti-MUC1* Fab", "setting": "BTRes1 cells [1]; 10 uM drug", "result": "also observed"}
    ]}
  ]
}
